Where “and” joins values, the source holds several entries; their conditions need not be identical. Equal entries are not always repeated.
What was measured:
Format in all cases: in vivo, Helianthus annuus
[1] = system: sunflower genotypes carrying the A122T mutation event; assay: Greenhouse whole-plant imazapir dose response (Example 8), group mean; settings: 14 DAT; for biomass, Dif with control (reduction), A122T / plant height, Dif with Control (height reduction), A122T / root dry weight, Dif with control (reduction), A122T: A122T mean; for biomass accumulation (% of untreated), Mean A122T / plant height (% of untreated), Mean A122T / root dry weight (% of untreated), Mean A122T: mean of six A122T genotypes; for Phytotoxicity Index, Mean A122T: mean of three A122T genotypes
Protocol: (§1) A greenhouse study was conducted to quantify and contrast the imazapir sensitivity of the mutants A122T and A205V in different genetic backgrounds at the whole plant level in sunflower. Seeds of the different sunflower lines that were used in this study were obtained under field conditions.
(§2) Seeds were sown in Petri dishes and, after germination, plantlets were transplanted to pots of 10 cm of diameter in a potting media consisting of equal parts of vermiculite, soil and sand. Plants were grown in a greenhouse under natural light conditions supplemented with 400 W sodium halide lamps to provide a 16 hrs daylength. Day/night temperatures were 25 and 20° C., respectively. At the V2 stage 10 plants of each genotype were randomly assigned to each treatment consisting of […] imazapir doses (0, 40, 80, 160, 240, 320, 400 and 480 g ai/ha), and a zero-time biomass determination. Experiment was arranged as a randomized block design with a full factorial (sunflower line×treatment) arrangement of treatments and 10 replications.
(§3) On the day of herbicide application ten plants of each genotype were cut at the cotyledonal node and dried at 60° C. for 48 hrs zero-time for dried weight determination. […] Height was determined as the distance between the cotyledonal node and the apex of each plant. For root biomass determination, each plant was taken from the pot and the potting media was washed out from the roots. Above ground biomass data from each line were converted to biomass accumulation after application by subtracting the appropriate average zero-time biomass from each sample. Dry biomass data were converted to percentages of the untreated control plants within each line to allow direct comparisons between groups.

[2] = system: sunflower TH10 (Restorer Line, A205V); assay: Greenhouse whole-plant imazapir dose response (Example 8); settings: 14 DAT
Protocol: as §1, §2, §3

[3] = system: sunflower GM1606 (Manteiner Line, A122T); assay: as above; settings: 14 DAT
Protocol: as §1, §2, §3

[4] = system: sunflower TH11 (Hybrid, A122T); assay: as above; settings: 14 DAT
Protocol: as §1, §2, §3

CC(C)C1(C)N=C(c2ncccc2C(=O)O)NC1=O (stereo not drawn) [imazapir, imazapyr]
biomass, Dif with control (reduction), A122T ([1]; 0.5× (40 g ai/ha)): 1.1%
plant height, Dif with Control (height reduction), A122T ([1]; 0.5× (40 g ai/ha)): 0.6%
root dry weight, Dif with control (reduction), A122T ([1]; 0.5× (40 g ai/ha)): 0.1%
biomass, Dif with control (reduction), A122T ([1]; 1× (80 g ai/ha)): 3.2%
plant height, Dif with Control (height reduction), A122T ([1]; 1× (80 g ai/ha)): 1.4%
root dry weight, Dif with control (reduction), A122T ([1]; 1× (80 g ai/ha)): 2.5%
biomass, Dif with control (reduction), A122T ([1]; 2× (160 g ai/ha)): 5.1%
plant height, Dif with Control (height reduction), A122T ([1]; 2× (160 g ai/ha)): 2.7%
root dry weight, Dif with control (reduction), A122T ([1]; 2× (160 g ai/ha)): 5.9%
biomass, Dif with control (reduction), A122T ([1]; 3× (240 g ai/ha)): 7.2%
plant height, Dif with Control (height reduction), A122T ([1]; 3× (240 g ai/ha)): 4.4%
root dry weight, Dif with control (reduction), A122T ([1]; 3× (240 g ai/ha)): 10.6%
biomass, Dif with control (reduction), A122T ([1]; 4× (320 g ai/ha)): 12.2%
plant height, Dif with Control (height reduction), A122T ([1]; 4× (320 g ai/ha)): 6.3%
root dry weight, Dif with control (reduction), A122T ([1]; 4× (320 g ai/ha)): 18.6%
biomass, Dif with control (reduction), A122T ([1]; 5× (400 g ai/ha)): 20.7%
plant height, Dif with Control (height reduction), A122T ([1]; 5× (400 g ai/ha)): 10.2%
root dry weight, Dif with control (reduction), A122T ([1]; 5× (400 g ai/ha)): 21.3%
biomass, Dif with control (reduction), A122T ([1]; 6× (480 g ai/ha)): 25% and 25.4%
plant height, Dif with Control (height reduction), A122T ([1]; 6× (480 g ai/ha)): 15.8%
root dry weight, Dif with control (reduction), A122T ([1]; 6× (480 g ai/ha)): 38.3%
biomass accumulation (% of untreated), Mean A122T ([1]; 0.5× (40 g ai/ha)): 98.9%
plant height (% of untreated), Mean A122T ([1]; 0.5× (40 g ai/ha)): 99.4%
root dry weight (% of untreated), Mean A122T ([1]; 0.5× (40 g ai/ha)): 99.9%
biomass accumulation (% of untreated), Mean A122T ([1]; 1× (80 g ai/ha)): 96.8%
plant height (% of untreated), Mean A122T ([1]; 1× (80 g ai/ha)): 98.6%
root dry weight (% of untreated), Mean A122T ([1]; 1× (80 g ai/ha)): 97.5%
biomass accumulation (% of untreated), Mean A122T ([1]; 2× (160 g ai/ha)): 94.9%
plant height (% of untreated), Mean A122T ([1]; 2× (160 g ai/ha)): 97.3%
root dry weight (% of untreated), Mean A122T ([1]; 2× (160 g ai/ha)): 94.1%
biomass accumulation (% of untreated), Mean A122T ([1]; 3× (240 g ai/ha)): 92.8%
plant height (% of untreated), Mean A122T ([1]; 3× (240 g ai/ha)): 95.6%
root dry weight (% of untreated), Mean A122T ([1]; 3× (240 g ai/ha)): 89.4%
biomass accumulation (% of untreated), Mean A122T ([1]; 4× (320 g ai/ha)): 87.8%
plant height (% of untreated), Mean A122T ([1]; 4× (320 g ai/ha)): 93.7%
root dry weight (% of untreated), Mean A122T ([1]; 4× (320 g ai/ha)): 81.4%
biomass accumulation (% of untreated), Mean A122T ([1]; 5× (400 g ai/ha)): 79.3%
plant height (% of untreated), Mean A122T ([1]; 5× (400 g ai/ha)): 89.8%
root dry weight (% of untreated), Mean A122T ([1]; 5× (400 g ai/ha)): 78.7%
biomass accumulation (% of untreated), Mean A122T ([1]; 6× (480 g ai/ha)): 74.6%
plant height (% of untreated), Mean A122T ([1]; 6× (480 g ai/ha)): 84.2%
root dry weight (% of untreated), Mean A122T ([1]; 6× (480 g ai/ha)): 61.7%
Phytotoxicity Index, Mean A122T ([1]; 0.5× (40 g ai/ha)): 0.3
Phytotoxicity Index, Mean A122T ([1]; 1× (80 g ai/ha)): 0.3
Phytotoxicity Index, Mean A122T ([1]; 2× (160 g ai/ha)): 0.3
Phytotoxicity Index, Mean A122T ([1]; 3× (240 g ai/ha)): 0.3
Phytotoxicity Index, Mean A122T ([1]; 4× (320 g ai/ha)): 0.5
Phytotoxicity Index, Mean A122T ([1]; 5× (400 g ai/ha)): 0.8
Phytotoxicity Index, Mean A122T ([1]; 6× (480 g ai/ha)): 1.2
Phytotoxicity Index ([2]; 0.5× (40 g ai/ha)): 0
biomass accumulation (dry biomass, % of untreated) ([2]; 0.5× (40 g ai/ha)): 99.2%
plant height (% of untreated) ([2]; 0.5× (40 g ai/ha)): 99.2%
root dry weight (% of untreated) ([2]; 0.5× (40 g ai/ha)): 90.3%
Phytotoxicity Index ([2]; 1× (80 g ai/ha)): 0
biomass accumulation (dry biomass, % of untreated) ([2]; 1× (80 g ai/ha)): 85.0%
plant height (% of untreated) ([2]; 1× (80 g ai/ha)): 98.1%
root dry weight (% of untreated) ([2]; 1× (80 g ai/ha)): 69.9%
Phytotoxicity Index ([2]; 2× (160 g ai/ha)): 3.1
biomass accumulation (dry biomass, % of untreated) ([2]; 2× (160 g ai/ha)): 58.1%
plant height (% of untreated) ([2]; 2× (160 g ai/ha)): 63.6%
root dry weight (% of untreated) ([2]; 2× (160 g ai/ha)): 41.3%
Phytotoxicity Index ([2]; 3× (240 g ai/ha)): 3.9
biomass accumulation (dry biomass, % of untreated) ([2]; 3× (240 g ai/ha)): 48.1%
plant height (% of untreated) ([2]; 3× (240 g ai/ha)): 51.9%
root dry weight (% of untreated) ([2]; 3× (240 g ai/ha)): 42.8%
Phytotoxicity Index ([2]; 4× (320 g ai/ha)): 5.9
biomass accumulation (dry biomass, % of untreated) ([2]; 4× (320 g ai/ha)): 28.8%
plant height (% of untreated) ([2]; 4× (320 g ai/ha)): 27.5%
root dry weight (% of untreated) ([2]; 4× (320 g ai/ha)): 22.3%
Phytotoxicity Index ([2]; 5× (400 g ai/ha)): 6.9
biomass accumulation (dry biomass, % of untreated) ([2]; 5× (400 g ai/ha)): 27.4%
plant height (% of untreated) ([2]; 5× (400 g ai/ha)): 28.0%
root dry weight (% of untreated) ([2]; 5× (400 g ai/ha)): 22.7%
Phytotoxicity Index ([2]; 6× (480 g ai/ha)): 6.7
biomass accumulation (dry biomass, % of untreated) ([2]; 6× (480 g ai/ha)): 24.9%
plant height (% of untreated) ([2]; 6× (480 g ai/ha)): 29.3%
root dry weight (% of untreated) ([2]; 6× (480 g ai/ha)): 16.4%
biomass accumulation (dry biomass, % of untreated) ([3]; 0.5× (40 g ai/ha)): 100.0%
plant height (% of untreated) ([3]; 0.5× (40 g ai/ha)): 97.0%
root dry weight (% of untreated) ([3]; 0.5× (40 g ai/ha)): 100%
biomass accumulation (dry biomass, % of untreated) ([3]; 1× (80 g ai/ha)): 100.0%
plant height (% of untreated) ([3]; 1× (80 g ai/ha)): 95.7%
root dry weight (% of untreated) ([3]; 1× (80 g ai/ha)): 100.0%
biomass accumulation (dry biomass, % of untreated) ([3]; 2× (160 g ai/ha)): 97.6%
plant height (% of untreated) ([3]; 2× (160 g ai/ha)): 95.2%
root dry weight (% of untreated) ([3]; 2× (160 g ai/ha)): 92.5%
biomass accumulation (dry biomass, % of untreated) ([3]; 3× (240 g ai/ha)): 95.4%
plant height (% of untreated) ([3]; 3× (240 g ai/ha)): 95.7%
root dry weight (% of untreated) ([3]; 3× (240 g ai/ha)): 85.2%
biomass accumulation (dry biomass, % of untreated) ([3]; 4× (320 g ai/ha)): 90.5%
plant height (% of untreated) ([3]; 4× (320 g ai/ha)): 94.1%
root dry weight (% of untreated) ([3]; 4× (320 g ai/ha)): 87.0%
biomass accumulation (dry biomass, % of untreated) ([3]; 5× (400 g ai/ha)): 85.3%
plant height (% of untreated) ([3]; 5× (400 g ai/ha)): 94.3%
root dry weight (% of untreated) ([3]; 5× (400 g ai/ha)): 88.1%
biomass accumulation (dry biomass, % of untreated) ([3]; 6× (480 g ai/ha)): 83.0%
plant height (% of untreated) ([3]; 6× (480 g ai/ha)): 91.4%
root dry weight (% of untreated) ([3]; 6× (480 g ai/ha)): 69.5%
Phytotoxicity Index ([4]; 0.5× (40 g ai/ha)): 0.4
biomass accumulation (dry biomass, % of untreated) ([4]; 0.5× (40 g ai/ha)): 96.6%
plant height (% of untreated) ([4]; 0.5× (40 g ai/ha)): 100.4%
root dry weight (% of untreated) ([4]; 0.5× (40 g ai/ha)): 100%
Phytotoxicity Index ([4]; 1× (80 g ai/ha)): 0.4
biomass accumulation (dry biomass, % of untreated) ([4]; 1× (80 g ai/ha)): 93.9%
plant height (% of untreated) ([4]; 1× (80 g ai/ha)): 99.9%
root dry weight (% of untreated) ([4]; 1× (80 g ai/ha)): 99.0%
Phytotoxicity Index ([4]; 2× (160 g ai/ha)): 0.4
biomass accumulation (dry biomass, % of untreated) ([4]; 2× (160 g ai/ha)): 81.6%
plant height (% of untreated) ([4]; 2× (160 g ai/ha)): 92.0%
root dry weight (% of untreated) ([4]; 2× (160 g ai/ha)): 86.1%
Phytotoxicity Index ([4]; 3× (240 g ai/ha)): 0.5
biomass accumulation (dry biomass, % of untreated) ([4]; 3× (240 g ai/ha)): 75.8%
plant height (% of untreated) ([4]; 3× (240 g ai/ha)): 90.5%
root dry weight (% of untreated) ([4]; 3× (240 g ai/ha)): 81.5%
Phytotoxicity Index ([4]; 4× (320 g ai/ha)): 1.0
biomass accumulation (dry biomass, % of untreated) ([4]; 4× (320 g ai/ha)): 75.0%
plant height (% of untreated) ([4]; 4× (320 g ai/ha)): 90.8%
root dry weight (% of untreated) ([4]; 4× (320 g ai/ha)): 72.6%
Phytotoxicity Index ([4]; 5× (400 g ai/ha)): 2.0
biomass accumulation (dry biomass, % of untreated) ([4]; 5× (400 g ai/ha)): 60.1%
plant height (% of untreated) ([4]; 5× (400 g ai/ha)): 84.4%
root dry weight (% of untreated) ([4]; 5× (400 g ai/ha)): 68.9%
Phytotoxicity Index ([4]; 6× (480 g ai/ha)): 2.5
biomass accumulation (dry biomass, % of untreated) ([4]; 6× (480 g ai/ha)): 59.6%
plant height (% of untreated) ([4]; 6× (480 g ai/ha)): 84.4%
root dry weight (% of untreated) ([4]; 6× (480 g ai/ha)): 45.3%
